Test results reported in the supplement of paper PMC11061612.

What was measured:
Test in all cases: Bliss excess, mean over the matrix (fraction); higher = more synergy
[1] = test system: SBC-5 (Small Cell Lung Carcinoma)
Procedure, shortened: (§1)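 Bliss excess equals the observed combination effect minus the expected value EA + EB − EA·EB, where EA and EB are the effects of each agent alone. Combination Emax is the second-highest inhibition within the matrix. Inhibition was scaled from CellTiter-Glo 2.0 luminescence, with 0 set by vehicle wells and 1 by blank wells, after 72 hours of two-drug dosing of cells plated in 1536-well plates.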

[2] = test system: MDA-MB-175-VII (Breast Carcinoma)
Procedure, shortened: as §1

[3] = test system: BC-1 (B-Cell Non-Hodgkin's Lymphoma)
Procedure, shortened: as §1

[4] = test system: IGROV-1 (Ovarian Carcinoma)
Procedure, shortened: as §1

[5] = test system: TK (B-Cell Non-Hodgkin's Lymphoma)
Procedure, shortened: as §1

[6] = test system: NTERA-2-cl-D1 (Other Solid Carcinomas)
Procedure, shortened: as §1

[7] = test system: KNS-62 (Squamous Cell Lung Carcinoma)
Procedure, shortened: as §1

[8] = test system: NCI-H2170 (Squamous Cell Lung Carcinoma)
Procedure, shortened: as §1

[9] = test system: OCI-M1 (Acute Myeloid Leukemia)
Procedure, shortened: as §1

[10] = test system: HT-1197 (Bladder Carcinoma)
Procedure, shortened: as §1

[11] = test system: GCIY (Gastric Carcinoma)
Procedure, shortened: as §1

[12] = test system: BT-474 (Breast Carcinoma)
Procedure, shortened: as §1

[13] = test system: MG-63 (Osteosarcoma)
Procedure, shortened: as §1

[14] = test system: SCC90 (Head and Neck Carcinoma)
Procedure, shortened: as §1

[15] = test system: HT-3 (Cervical Carcinoma)
Procedure, shortened: as §1

[16] = test system: SUP-HD1 (Hodgkin's Lymphoma)
Procedure, shortened: as §1

[17] = test system: ATN-1 (T-Lymphoblastic Leukemia)
Procedure, shortened: as §1

[18] = test system: SW1463 (Colorectal Carcinoma)
Procedure, shortened: as §1

[19] = test system: DK-MG (Glioblastoma)
Procedure, shortened: as §1

[20] = test system: NCI-H1975 (Lung Adenocarcinoma)
Procedure, shortened: as §1

Row | SMILES | Bliss excess [1] | Bliss excess [2] | Bliss excess [3] | Bliss excess [4] | Bliss excess [5] | Bliss excess [6] | Bliss excess [7] | Bliss excess [8] | Bliss excess [9] | Bliss excess [10] | Bliss excess [11] | Bliss excess [12] | Bliss excess [13] | Bliss excess [14] | Bliss excess [15] | Bliss excess [16] | Bliss excess [17] | Bliss excess [18] | Bliss excess [19] | Bliss excess [20]
1 | Cc1c2c(nn1C)CSCc1cc(n(C)n1)CSc1cc(c3ccccc3c1)OCCCc1c(C(=O)O)n(C)c3c-2c(Cl)ccc13 [AZD5991] + Cn1cnc2c(F)c(Nc3ccc(Br)cc3Cl)c(C(=O)NOCCO)cc21 [Selumetinib] (first compound max 1 µM, 7x7, partner max 3 µM) | 0 | -0.0217 | 0.012 | 0.0372 | -0.009 | 0.0115 | -0.0171 | -0.0377 | 0.03 | -0.0375 | -0.0633 | -0.0205 | -0.042 | 0.0581 | 0.0926 | -0.011 | -0.0672 | -0.0352 | 0.0143 | 0.0208
2 | NC1(C(=O)N[C@@H](CCO)c2ccc(Cl)cc2)CCN(c2ncnc3[nH]ccc23)CC1 [Capivasertib] + CC(=O)c1c(C)c2cnc(Nc3ccc(N4CCNCC4)cn3)nc2n(C2CCCC2)c1=O [Palbociclib] (first compound max 10 µM, 7x7, partner max 10 µM) | 0.0352 | 0.0127 | 0.0026 | -0.048 | -0.0218 | 0.0373 | -0.0236 | 0.0137 | -0.0056 | 0.0024 | -0.0402 | -0.0261 | 0.0404 | -0.0256 | -0.0182 | -0.0643 | -0.0217 | -0.0837 | -0.0228 | -0.0456
3 | NC1(C(=O)N[C@@H](CCO)c2ccc(Cl)cc2)CCN(c2ncnc3[nH]ccc23)CC1 [Capivasertib] + CC(C)n1c(=O)n(C)c2cnc3cc(F)c(-c4ccc(OCCCN5CCCCC5)nc4)cc3c21 [AZD1390] (first compound max 10 µM, 7x7, partner max 0.3 µM) | -0.0792 | -0.0189 | -0.0175 | -0.0147 | -0.0045 | 0.0115 | -0.0458 | -0.0679 | -0.0268 | -0.0388 | -0.0841 | -0.0406 | -0.0844 | -0.0484 | -0.035 | -0.136 | -0.062 | -0.0196 | -0.0847 | -0.0165
4 | NC1(C(=O)N[C@@H](CCO)c2ccc(Cl)cc2)CCN(c2ncnc3[nH]ccc23)CC1 [Capivasertib] + CCN(CCO)CCCOc1ccc2c(Nc3cc(CC(=O)Nc4cccc(F)c4)[nH]n3)ncnc2c1 [AZD2811] (first compound max 10 µM, 7x7, partner max 1 µM) | 0.0526 | -0.0202 | -0.0383 | -0.0632 | 0.0103 | 0.0106 | -0.0086 | 0.0135 | 0.066 | 0.016 | -0.0578 | 0.0025 | -0.0295 | 0.0332 | -0.0327 | -0.0307 | -0.0813 | -0.0239 | -0.0447 | -0.0558
5 | NC1(C(=O)N[C@@H](CCO)c2ccc(Cl)cc2)CCN(c2ncnc3[nH]ccc23)CC1 [Capivasertib] + COc1nnc2ccc(N3CCC(c4ccc(OCCN5CCN(C)C(=O)[C@H]5C)cc4)CC3)nn12 [AZD5153] (first compound max 10 µM, 7x7, partner max 1 µM) | 0.0351 | 0.0129 | -0.0042 | -0.0221 | 0.012 | -0.0097 | 0.0035 | 0.0383 | -0.0026 | 0.0255 | -0.0265 | 0.0761 | -0.0237 | 0.0079 | -0.0281 | -0.047 | -0.0444 | -0.0021 | 0.0534 | -0.0761
6 | NC1(C(=O)N[C@@H](CCO)c2ccc(Cl)cc2)CCN(c2ncnc3[nH]ccc23)CC1 [Capivasertib] + C[C@@H]1COCCN1C2=NC(=NC(=C2)C3(CC3)[S@](=N)(=O)C)C4=C5C=CNC5=NC=C4 [AZD6738] (first compound max 10 µM, 7x7, partner max 10 µM) | -0.0169 | -0.0407 | 0.0034 | -0.0883 | -0.0045 | -0.0258 | -0.0305 | -0.0011 | 0.0211 | -0.0491 | -0.128 | 0.0314 | -0.0524 | -0.0541 | -0.0091 | -0.0508 | -0.0127 | -0.101 | -0.0405 | -0.0576
7 | NC1(C(=O)N[C@@H](CCO)c2ccc(Cl)cc2)CCN(c2ncnc3[nH]ccc23)CC1 [Capivasertib] + Cn1cnc2c(F)c(Nc3ccc(Br)cc3Cl)c(C(=O)NOCCO)cc21 [Selumetinib] (first compound max 10 µM, 7x7, partner max 10 µM) | 0.0801 | 0.0989 | 0.0898 | -0.0493 | -0.0189 | 0.0064 | 0.119 | 0.0047 | 0.0825 | 0.0646 | -0.0245 | 0.0509 | -0.0011 | 0.0331 | -0.0176 | -0.0141 | 0.0055 | -0.0255 | 0.0686 | 0.0584
